US20160212997A1, “AGRICULTURAL CHEMICALS” (REDAG CROP PROTECTION LTD, priority 2013, published 2016)

Experiments:
Type in all cases: in vivo
[1] = system: Tomato moths; experiment: Potter tower spray on tomato moths, knockdown and mortality
[2] = system: red spider mites, Tetranychus urticae; experiment: Potter tower spray on red spider mites, knockdown and mortality; settings: Spider mites
[3] = system: Cabbage moth, Mamestra brassicae; experiment: Potter tower spray on cabbage moth larvae, knockdown and mortality; settings: Cabbage moths
From the text: The compounds were screened for insecticidal efficacy against aphids, Myzus persicae, Cabbage moth, Mamestra brassicae, diamond black moths, Plutella xylostella, red spider mites, Tetranychus urticae, whitefly, Trialeurodes vaporariorum, in terms of knockdown and mortality.
Myzus persicae, Cabbage moth, Mamestra brassicae, diamond back moths, Plutella xylostella, red spider mites, Tetranychus urticae, whitefly, Trialeurodes vaporariorum, were obtained from specified laboratory cultures. Mixed sex and age aphids and mites, moth larvae and whitefly scale infested leaves were used in the experiments. Environmental conditions were closely monitored and recorded and were within the optimal range of the target species.
(§1) The compounds were screened at a range of five concentrations, diluted in DMSO. Some of the compounds were screened against aphids, whitefly and red spider mites and other compounds were screened against cabbage moth, and diamond black moths. A carrier only and an untreated control will also be conducted. Treatments were applied directly onto the insects within Petri dishes, using a potter tower.
(§2) Twenty mites and ten aphids, scales and moth larvae were placed within a Petri dish, lined with a suitable leaf disc on a damp cotton wool pad. Scales were already on leaves. The Petri dishes were then sprayed using a potter tower. The number of knocked down and anthropods were assessed at 24 and 48 hours post treatment. Five replicates were be performed for each treatment, for each species.

[4] = system: Tomato moths; experiment: Potter tower spray on tomato moths, knockdown and mortality; remark: listed apart in the source
From the text: as §1, §2

[5] = system: aphids, Myzus persicae; experiment: Potter tower spray on aphids, knockdown and mortality; settings: Aphids
Summary of the method: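 Ten aphids (mixed sex and age) per Petri dish on a leaf disc were sprayed by Potter tower with compounds at five concentrations in DMSO. Knockdown and mortality were scored at 24 and 48 hours, five replicates per treatment, alongside carrier-only and untreated controls.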

CC(c1ccc(C(F)(F)F)nc1)S(C)(=O)=NC#N (stereo not shown) [Compound 11, N-[Methyl-oxo-[1-[6-(trifluoromethyl)-3-pyridyl]ethyl]-λ^6-sulfanylidene]cyanamide, reference compound]
percentage control ([1]; 12.5 g/ha, 48 h): E (A percentage control of from 1 to 19 is indicated by the letter E) | percentage control ([1]; 100 g/ha, 24 h): E (A percentage control of from 1 to 19 is indicated by the letter E) | percentage control ([2]; 12.5 g/ha, 24 h): E (A percentage control of from 1 to 19 is indicated by the letter E) | percentage control ([2]; 12.5 g/ha, 48 h): D (A percentage control of from 20 to 39 is indicated by the letter D) | percentage control ([2]; 25 g/ha, 24 h): E (A percentage control of from 1 to 19 is indicated by the letter E) | percentage control ([2]; 25 g/ha, 48 h): E (A percentage control of from 1 to 19 is indicated by the letter E) | percentage control ([2]; 50 g/ha, 24 h): D (A percentage control of from 20 to 39 is indicated by the letter D) | percentage control ([2]; 50 g/ha, 48 h): D (A percentage control of from 20 to 39 is indicated by the letter D) | percentage control ([2]; 100 g/ha, 24 h): D (A percentage control of from 20 to 39 is indicated by the letter D) | percentage control ([2]; 100 g/ha, 48 h): D (A percentage control of from 20 to 39 is indicated by the letter D) | percentage control ([2]; 200 g/ha, 24 h): C (A percentage control of from 40 to 59 is indicated by the letter C) | percentage control ([2]; 200 g/ha, 48 h): C (A percentage control of from 40 to 59 is indicated by the letter C) | percentage control ([3]; 12.5 g/ha, 24 h): E (A percentage control of from 1 to 19 is indicated by the letter E) | percentage control ([3]; 12.5 g/ha, 48 h): E (A percentage control of from 1 to 19 is indicated by the letter E) | percentage control ([3]; 25 g/ha, 24 h): E (A percentage control of from 1 to 19 is indicated by the letter E) | percentage control ([3]; 25 g/ha, 48 h): E (A percentage control of from 1 to 19 is indicated by the letter E) | percentage control ([3]; 50 g/ha, 24 h): E (A percentage control of from 1 to 19 is indicated by the letter E) | percentage control ([3]; 50 g/ha, 48 h): E (A percentage control of from 1 to 19 is indicated by the letter E) | percentage control ([3]; 100 g/ha, 24 h): E (A percentage control of from 1 to 19 is indicated by the letter E) | percentage control ([3]; 100 g/ha, 48 h): E (A percentage control of from 1 to 19 is indicated by the letter E) | percentage control ([3]; 200 g/ha, 24 h): E (A percentage control of from 1 to 19 is indicated by the letter E) | percentage control ([3]; 200 g/ha, 48 h): E (A percentage control of from 1 to 19 is indicated by the letter E) | percentage control ([4]; 12.5 g/ha, 24 h): 0% | percentage control ([4]; 25 g/ha, 24 h): E (A percentage control of from 1 to 19 is indicated by the letter E) | percentage control ([4]; 25 g/ha, 48 h): E (A percentage control of from 1 to 19 is indicated by the letter E) | percentage control ([4]; 50 g/ha, 24 h): 0% | percentage control ([4]; 50 g/ha, 48 h): E (A percentage control of from 1 to 19 is indicated by the letter E) | percentage control ([4]; 100 g/ha, 48 h): E (A percentage control of from 1 to 19 is indicated by the letter E) | percentage control ([4]; 200 g/ha, 24 h): E (A percentage control of from 1 to 19 is indicated by the letter E) | percentage control ([4]; 200 g/ha, 48 h): E (A percentage control of from 1 to 19 is indicated by the letter E) | percentage control ([5]; 12.5 g/ha, 24 h): C (A percentage control of from 40 to 59 is indicated by the letter C) | percentage control ([5]; 12.5 g/ha, 48 h): B (A percentage control of from 60 to 79 is indicated by the letter B) | percentage control ([5]; 25 g/ha, 24 h): E (A percentage control of from 1 to 19 is indicated by the letter E) | percentage control ([5]; 25 g/ha, 48 h): B (A percentage control of from 60 to 79 is indicated by the letter B) | percentage control ([5]; 50 g/ha, 24 h): D (A percentage control of from 20 to 39 is indicated by the letter D) | percentage control ([5]; 50 g/ha, 48 h): B (A percentage control of from 60 to 79 is indicated by the letter B) | percentage control ([5]; 100 g/ha, 24 h): A (A percentage control of from 80 to 100 is indicated by the letter A) | percentage control ([5]; 100 g/ha, 48 h): A (A percentage control of from 80 to 100 is indicated by the letter A) | percentage control ([5]; 200 g/ha, 24 h): B (A percentage control of from 60 to 79 is indicated by the letter B) | percentage control ([5]; 200 g/ha, 48 h): A (A percentage control of from 80 to 100 is indicated by the letter A)
